Data taken from ChEMBL document CHEMBL4184109, “Design, synthesis, and structure-activity relationship studies of novel tetrazole antifungal agents with potent activity, broad antifungal spectrum and high selectivity” (Bioorg Med Chem Lett, 2018).
In brackets after ≈: the same amount, converted by molar mass.

Assays:
Type in all cases: functional
Candida albicans [1] = assay: Antifungal activity against Candida albicans SC5314 after 24 hrs by serial dilution method; conditions: SC5314, 24 h
Aspergillus fumigatus = assay: Antifungal activity against Aspergillus fumigatus after 48 hrs by serial dilution method
Nakaseomyces glabratus = assay: Antifungal activity against Candida glabrata after 24 hrs by serial dilution method
Cryptococcus neoformans = assay: Antifungal activity against Cryptococcus neoformans after 72 hrs by serial dilution method
Candida parapsilosis = assay: Antifungal activity against Candida parapsilosis ATCC 22019 after 24 hrs by serial dilution method; conditions: Lodderomyces parapsilosis, ATCC 22019, 24 h
Candida albicans [2] = assay: Antifungal activity against Candida albicans Y0109 after 24 hrs by serial dilution method; conditions: Y0109, 24 h

MIC80 (Candida albicans [1]) [µg/mL] | MIC80 (Aspergillus fumigatus) [µg/mL] | MIC80 (Nakaseomyces glabratus) [µg/mL] | MIC80 (Cryptococcus neoformans) [µg/mL] | MIC80 (Candida parapsilosis) [µg/mL] | MIC80 (Candida albicans [2]) [µg/mL] | Structure (SMILES)
4 (≈ 6.99 µM) | > 64 | 4 (≈ 6.99 µM) | 2 (≈ 3.49 µM) | 4 (≈ 6.99 µM) | 4 (≈ 6.99 µM) | CSc1ccc(Cn2ncn(-c3ccc(C(F)(F)C(O)(Cn4cnnn4)c4ccc(F)cc4F)nc3)c2=O)cc1 (stereo unspecified)
2 (≈ 3.63 µM) | > 8 | 4 (≈ 7.25 µM) | 4 (≈ 7.25 µM) | 0.5 (≈ 0.907 µM) | 1 (≈ 1.81 µM) | N#Cc1ccc(Cn2ncn(-c3ccc(C(F)(F)C(O)(Cn4cnnn4)c4ccc(F)cc4F)nc3)c2=O)cc1 (stereo unspecified)
> 8 | > 8 | > 8 | > 8 | > 8 | > 8 | CC(O)(CO)Cn1ncn(-c2ccc(C(F)(F)C(O)(Cn3cnnn3)c3ccc(F)cc3F)nc2)c1=O (stereo unspecified)
1 (≈ 1.85 µM) | > 8 | 2 (≈ 3.7 µM) | 2 (≈ 3.7 µM) | 0.25 (≈ 0.463 µM) | 1 (≈ 1.85 µM) | Cc1ccc(Cn2ncn(-c3ccc(C(F)(F)C(O)(Cn4cnnn4)c4ccc(F)cc4F)nc3)c2=O)cc1 (stereo unspecified)
1 (≈ 1.64 µM) | > 8 | 4 (≈ 6.55 µM) | 2 (≈ 3.28 µM) | 0.5 (≈ 0.819 µM) | 1 (≈ 1.64 µM) | O=c1n(-c2ccc(C(F)(F)C(O)(Cn3cnnn3)c3ccc(F)cc3F)nc2)cnn1Cc1ccc(OC(F)(F)F)cc1 (stereo unspecified)
> 64 | > 64 | > 64 | > 64 | > 64 | > 64 | CS(=O)(=O)c1ccc(Cn2ncn(-c3ccc(C(F)(F)C(O)(Cn4cnnn4)c4ccc(F)cc4F)nc3)c2=O)cc1 (stereo unspecified)
1 (≈ 2.03 µM) | > 8 | 2 (≈ 4.06 µM) | 4 (≈ 8.12 µM) | 0.25 (≈ 0.508 µM) | 1 (≈ 2.03 µM) | CCC(C)n1ncn(-c2ccc(C(F)(F)C(O)(Cn3cnnn3)c3ccc(F)cc3F)nc2)c1=O (stereo unspecified)
2 (≈ 3.36 µM) | > 8 | 4 (≈ 6.73 µM) | 4 (≈ 6.73 µM) | 0.5 (≈ 0.841 µM) | 1 (≈ 1.68 µM) | O=c1n(-c2ccc(C(F)(F)C(O)(Cn3cnnn3)c3ccc(F)cc3F)nc2)cnn1Cc1ccc(C(F)(F)F)cc1 (stereo unspecified)
1 (≈ 1.67 µM) | > 64 | 2 (≈ 3.33 µM) | 0.5 (≈ 0.833 µM) | 2 (≈ 3.33 µM) | 1 (≈ 1.67 µM) | COCCOc1ccc(Cn2ncn(-c3ccc(C(F)(F)C(O)(Cn4cnnn4)c4ccc(F)cc4F)nc3)c2=O)cc1 (stereo unspecified)
> 8 | > 8 | > 8 | > 8 | 2 (≈ 3.76 µM) | 4 (≈ 7.51 µM) | O=C1CCCCC1n1ncn(-c2ccc(C(F)(F)C(O)(Cn3cnnn3)c3ccc(F)cc3F)nc2)c1=O (stereo unspecified)
2 (≈ 3.79 µM) | > 64 | 2 (≈ 3.79 µM) | 1 (≈ 1.9 µM) | 16 (≈ 30.3 µM) | 4 (≈ 7.58 µM) | O=c1n(-c2ccc(C(F)(F)C(O)(Cn3cnnn3)c3ccc(F)cc3F)nc2)cnn1Cc1ccccn1 (stereo unspecified)
0.5 (≈ 0.918 µM) | > 8 | 2 (≈ 3.67 µM) | 2 (≈ 3.67 µM) | 0.25 (≈ 0.459 µM) | 1 (≈ 1.84 µM) | O=c1n(-c2ccc(C(F)(F)C(O)(Cn3cnnn3)c3ccc(F)cc3F)nc2)cnn1Cc1ccc(F)cc1 (stereo unspecified)
0.5 (≈ 0.95 µM) | > 8 | 4 (≈ 7.6 µM) | 4 (≈ 7.6 µM) | 0.25 (≈ 0.475 µM) | 1 (≈ 1.9 µM) | O=c1n(-c2ccc(C(F)(F)C(O)(Cn3cnnn3)c3ccc(F)cc3F)nc2)cnn1Cc1ccccc1 (stereo unspecified)
> 8 | > 8 | > 8 | > 8 | 4 (≈ 7.87 µM) | > 8 | CC(C)(O)Cn1ncn(-c2ccc(C(F)(F)C(O)(Cn3cnnn3)c3ccc(F)cc3F)nc2)c1=O (stereo unspecified)
> 8 | > 8 | > 8 | > 8 | 4 (≈ 7.93 µM) | > 8 | O=c1n(-c2ccc(C(F)(F)C(O)(Cn3cnnn3)c3ccc(F)cc3F)nc2)cnn1CC#CCO (stereo unspecified)
1 (≈ 2.09 µM) | > 8 | 2 (≈ 4.18 µM) | 8 (≈ 16.7 µM) | 0.5 (≈ 1.05 µM) | 1 (≈ 2.09 µM) | CC(C)n1ncn(-c2ccc(C(F)(F)C(O)(Cn3cnnn3)c3ccc(F)cc3F)nc2)c1=O (stereo unspecified)
